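GI50 marks 50% less growth. TGI marks complete inhibition of growth.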
Columns and labels:
Test in all cases: inhibition of tumour cell growth, NCI panel, 384-well format
[1] = test system: IGROV1 ovarian
[2] = test system: UACC-257 melanoma
[3] = test system: OVCAR-5 ovarian
[4] = test system: NCI-H226 lung
[5] = test system: BT-549 breast
[6] = test system: MOLT-4 leukemia
[7] = test system: HL-60(TB) leukemia
[8] = test system: HT29 colon
[9] = test system: SNB-19 CNS
[10] = test system: SK-MEL-28 melanoma
[11] = test system: NCI-H460 NSCLC
[12] = test system: T-47D breast
[13] = test system: DU-145 prostate
[14] = test system: KM12 colon
[15] = test system: M14 melanoma
[16] = test system: 786-0 renal
[17] = test system: RXF 393 renal
[18] = test system: COLO 205 colon
[19] = test system: MALME-3M melanoma
[20] = test system: NCI/ADR-RES ovarian
[21] = test system: SF-295 CNS
[22] = test system: HCT-116 colon
[23] = test system: OVCAR-3 ovarian
[24] = test system: UACC-62 melanoma
[25] = test system: SF-539 CNS
[26] = test system: HCC-2998 colon
[27] = test system: U251 glioblastoma
[28] = test system: HCT-15 colon
[29] = test system: SN12C renal
[30] = test system: A549 NSCLC
[31] = test system: SNB-75 CNS
[32] = test system: ACHN renal
[33] = test system: PC-3 prostate
[34] = test system: MDA-MB-468 breast
[35] = test system: NCI-H522 lung
[36] = test system: SK-MEL-5 melanoma
[37] = test system: HS 578T breast
[38] = test system: HOP-62 NSCLC
[39] = test system: OVCAR-4 ovarian
[40] = test system: MCF7 breast
[41] = test system: CCRF-CEM leukemia
[42] = test system: SR leukemia
[43] = test system: A498 renal
[44] = test system: CAKI-1 renal
[45] = test system: MDA-MB-435 melanoma
[46] = test system: NCI-H322M lung
[47] = test system: SK-MEL-2 melanoma
[48] = test system: K-562 leukemia
[49] = test system: NCI-H23 lung
[50] = test system: SW-620 colon
[51] = test system: HOP-92 NSCLC
[52] = test system: SK-OV-3 ovarian
[53] = test system: LOX IMVI melanoma
[54] = test system: MDA-MB-231 breast
[55] = test system: UO-31 renal
[56] = test system: SF-268 CNS
[57] = test system: EKVX NSCLC
[58] = test system: RPMI-8226 leukemia
[59] = test system: TK-10 renal
[60] = test system: OVCAR-8 ovarian

COc1c(C)cnc(Cn2cnc3c(Cl)nc(N)nc32)c1C
GI50 [1]: 55.9 nM
TGI [1]: 626 nM
GI50 [2]: 651 nM
TGI [2]: 34600 nM
GI50 [3]: 264 nM
TGI [3]: > 100000 nM
GI50 [4]: 245 nM
TGI [4]: > 100000 nM
GI50 [5]: 50.8 nM
TGI [5]: 269 nM
GI50 [6]: 36.2 nM
TGI [6]: 123 nM
GI50 [7]: 52.2 nM
TGI [7]: 172 nM
GI50 [8]: 61.5 nM
TGI [8]: > 100000 nM
GI50 [9]: 262 nM
TGI [9]: 5620 nM
GI50 [10]: 388 nM
TGI [10]: 16200 nM
GI50 [11]: 34 nM
TGI [11]: 123 nM
GI50 [12]: 339 nM
TGI [12]: 14800 nM
GI50 [13]: 40.7 nM
TGI [13]: 1410 nM
GI50 [14]: 52.3 nM
TGI [14]: 14000 nM
GI50 [15]: 287 nM
TGI [15]: 18100 nM
GI50 [16]: 89.4 nM
TGI [16]: 2780 nM
GI50 [17]: 692 nM
TGI [17]: 7520 nM
GI50 [18]: 28.6 nM
TGI [18]: 98.1 nM
GI50 [19]: 189 nM
TGI [19]: 438 nM
GI50 [20]: 177 nM
TGI [20]: 498 nM
GI50 [21]: 134 nM
TGI [21]: 654 nM
GI50 [22]: 194 nM
TGI [22]: > 100000 nM
GI50 [23]: 165 nM
TGI [23]: 13800 nM
GI50 [24]: 145 nM
TGI [24]: 711 nM
GI50 [25]: 97.2 nM
TGI [25]: 389 nM
GI50 [26]: 92.3 nM
TGI [26]: 438 nM
GI50 [27]: 47.3 nM
TGI [27]: 1300 nM
GI50 [28]: 59.6 nM
TGI [28]: 13100 nM
GI50 [29]: 143 nM
TGI [29]: 488 nM
GI50 [30]: 73.9 nM
TGI [30]: > 100000 nM
GI50 [31]: 357 nM
TGI [31]: 2080 nM
GI50 [32]: 163 nM
TGI [32]: 38000 nM
GI50 [33]: 137 nM
TGI [33]: 664 nM
GI50 [34]: 62.2 nM
TGI [34]: 276 nM
GI50 [35]: 61.7 nM
TGI [35]: 313 nM
GI50 [36]: 59.6 nM
TGI [36]: 16000 nM
GI50 [37]: 307 nM
TGI [37]: 1410 nM
GI50 [38]: 112 nM
TGI [38]: 1150 nM
GI50 [39]: 286 nM
TGI [39]: 27400 nM
GI50 [40]: 51.2 nM
TGI [40]: > 100000 nM
GI50 [41]: 36.9 nM
TGI [41]: 430 nM
GI50 [42]: 16.3 nM
TGI [42]: 31.1 nM
GI50 [43]: 381 nM
TGI [43]: > 100000 nM
GI50 [44]: 470 nM
TGI [44]: 2870 nM
GI50 [45]: 154 nM
TGI [45]: 53700 nM
GI50 [46]: 167 nM
TGI [46]: 80100 nM
GI50 [47]: 482 nM
TGI [47]: 783 nM
GI50 [48]: 55.8 nM
TGI [48]: 621 nM
GI50 [49]: 149 nM
TGI [49]: 500 nM
GI50 [50]: 78.7 nM
TGI [50]: 5030 nM
GI50 [51]: 241 nM
TGI [51]: 737 nM
GI50 [52]: 264 nM
TGI [52]: 5000 nM
GI50 [53]: 115 nM
TGI [53]: 245 nM
GI50 [54]: 272 nM
TGI [54]: 927 nM
GI50 [55]: 74.5 nM
TGI [55]: > 100000 nM
GI50 [56]: 133 nM
TGI [56]: 23800 nM
GI50 [57]: 319 nM
TGI [57]: 5030 nM
GI50 [58]: 71.5 nM
TGI [58]: 296 nM

CCS(=O)(=O)Nc1ccc(Oc2ccc(F)cc2F)c(-c2cn(C)c(=O)c3[nH]ccc23)c1
GI50 [1]: < 10 nM
TGI [1]: 196 nM
GI50 [2]: 12.8 nM
TGI [2]: 1890 nM
GI50 [4]: < 10 nM
TGI [4]: 796 nM
GI50 [5]: < 10 nM
TGI [5]: 172 nM
GI50 [6]: < 10 nM
TGI [6]: 124 nM
GI50 [7]: < 10 nM
TGI [7]: < 10 nM
GI50 [8]: < 10 nM
TGI [8]: 11000 nM
GI50 [9]: 40.7 nM
TGI [9]: 12100 nM
GI50 [10]: 50.2 nM
TGI [10]: 2090 nM
GI50 [11]: 30.5 nM
TGI [11]: 2140 nM
GI50 [12]: 24.6 nM
TGI [12]: 1430 nM
GI50 [13]: 174 nM
TGI [13]: 12500 nM
GI50 [59]: < 10 nM
TGI [59]: 384 nM
GI50 [14]: 10 nM
TGI [14]: 1270 nM
GI50 [15]: 12.7 nM
TGI [15]: 10200 nM
GI50 [16]: < 10 nM
TGI [16]: 2120 nM
GI50 [17]: 308 nM
TGI [17]: 2490 nM
GI50 [18]: < 10 nM
TGI [18]: 724 nM
GI50 [19]: 11.5 nM
TGI [19]: 779 nM
GI50 [20]: 82.6 nM
TGI [20]: 1810 nM
GI50 [21]: 120 nM
TGI [21]: 4140 nM
GI50 [22]: 11.2 nM
TGI [22]: 1450 nM
GI50 [23]: < 10 nM
TGI [23]: 156 nM
GI50 [24]: < 10 nM
TGI [24]: 583 nM
GI50 [25]: 27.2 nM
TGI [25]: 3200 nM
GI50 [26]: < 10 nM
TGI [26]: 40.4 nM
GI50 [27]: 57.1 nM
TGI [27]: 1800 nM
GI50 [28]: < 10 nM
TGI [28]: 1050 nM
GI50 [29]: 24.8 nM
TGI [29]: 3290 nM
GI50 [30]: 34.6 nM
TGI [30]: 10600 nM
GI50 [31]: 112 nM
TGI [31]: 5400 nM
GI50 [32]: 59.7 nM
TGI [32]: 10100 nM
GI50 [33]: 22.3 nM
TGI [33]: 10200 nM
GI50 [34]: 10.4 nM
TGI [34]: 429 nM
GI50 [35]: < 10 nM
TGI [35]: 114 nM
GI50 [36]: < 10 nM
TGI [36]: 876 nM
GI50 [37]: < 10 nM
TGI [37]: 14.5 nM
GI50 [38]: < 10 nM
TGI [38]: 337 nM
GI50 [39]: < 10 nM
TGI [39]: 79.3 nM
GI50 [40]: < 10 nM
TGI [40]: 1180 nM
GI50 [41]: < 10 nM
TGI [41]: 353 nM
GI50 [42]: < 10 nM
TGI [42]: < 10 nM
GI50 [43]: 21 nM
TGI [43]: 3250 nM
GI50 [44]: < 10 nM
TGI [44]: 475 nM
GI50 [45]: 140 nM
TGI [45]: 11500 nM
GI50 [46]: < 10 nM
TGI [46]: 1610 nM
GI50 [48]: < 10 nM
TGI [48]: 1970 nM
GI50 [49]: 10.5 nM
TGI [49]: 237 nM
GI50 [60]: < 10 nM
TGI [60]: 131 nM
GI50 [50]: 174 nM
TGI [50]: 1950 nM
GI50 [51]: 10.9 nM
TGI [51]: 1520 nM
GI50 [52]: < 10 nM
TGI [52]: 504 nM
GI50 [53]: < 10 nM
TGI [53]: 14.4 nM
GI50 [54]: < 10 nM
TGI [54]: 2850 nM
GI50 [55]: 38.2 nM
TGI [55]: 10300 nM
GI50 [56]: 67.4 nM
TGI [56]: 2740 nM
GI50 [57]: 397 nM
TGI [57]: 8660 nM
GI50 [58]: < 10 nM
TGI [58]: < 10 nM

From PubChem BioAssay (NCI)
